≈ marks a conversion by molar mass, not a printed value.
Legend:
[1] = test system: Saccharomyces cerevisiae (YPH501); experiment: Anti-fungal/anti-yeast activity: MIC50 (broth microdilution) and MFC; format: cell-based; details: for MFC / MIC: Saccharomyces cerevisiae; for Activity (fungicidal/fungistatic) / Ratio MFC/MIC: Saccharomyces cerevisiae (YPH501); for MIC: read-out: MIC-50
[2] = test system: Huh7 cells; experiment: Neutral red uptake assay (cytotoxicity); format: cell-based, human
Excerpt: The neutral red uptake assay is a cytotoxicity test that is based on the ability of viable cells to incorporate and bind the supra-vital dye neutral red in the lysosomes. This weakly cationic dye penetrates cell membranes by non-ionic passive diffusion and concentrates in the lysosomes, where it binds by electrostatic hydrophobic bonds to anionic and phosphate groups of the lysosomal matrix. The dye is then extracted from the viable cells using an acidified ethanol solution, and the absorbance of the solubilized dye is read. When the cell dies or the pH gradient is reduced, the dye is not retained and consequently, the amount of retained dye is proportional to the number of viable cells. Most primary cells and cell lines can be used for this method. The HepG2 and Huh7, two human hepatoma cell lines, were used for this study. The cells were seeded in 96-well tissue culture plates and treated for 48 hours with the compounds. The plates were then incubated for 2 hours with a medium containing neutral red. The cells were subsequently washed, the dye was extracted in each well, and the absorbance was read using a spectrophotometer (FIG. 3 and Table 11).

[3] = test system: Huh7 or HepG2 cell line; experiment: MTT assay (cytotoxicity); format: cell-based, human; details: 24 hours and 48 hours
Experimental: The MTT assay is a colorimetric assay that measures the reduction of yellow 3-(4,5-dimethylhiazol-2-yl)-2,5-diphenyl tetrazolium bromide (MTT) by mitochondrial succinate dehydrogenase. The MTT enters the cells and passes into the mitochondria where it is reduced to an insoluble, dark purple, formazan product. The cells are then solubilized with an organic solvent (e.g., isopropanol) and the released, solubilized formazan reagent is measured spectrophotometrically. Since reduction of MTT can only occur in metabolically active cells, the level of activity is a measure of the viability of the cells.
Cells of the Huh7 or HepG2 cell line were seeded in a 96 well plate. The plate was incubated overnight at 37° C. in a humidified incubator, 5% CO2. The test compounds were added to the plate. Different concentrations of drug were tested in triplicate along with a negative control. The final volume was adjusted to 100 μl per well. The plate was incubated overnight at 37° C. in a humidified incubator, 5% CO2. After 24 hours and 48 hours, MTT reagent (5 mg/ml, 10 μl/100 μl per well of the 96 well plate) was added and incubated at 37° C. for 3 hours. After 3 hours, 100 μl of the DMSO solution was added to each well and the plate was rocked at room temperature for 1 hour. The plate was then read on a plate reader at […].

[4] = test system: Candidia parapsilosis; experiment: Anti-fungal/anti-yeast activity: MIC50 (broth microdilution) and MFC; format: cell-based; details: for Activity (fungicidal/fungistatic) / Ratio MFC/MIC: Candidia parapsilosis; for MIC: read-out: MIC-50
Experimental: (§1) Fluconazole, an ergosterol inhibitor, and the beta-1,3-glucan inhibitor micafungin served as controls (See Tables 1-8).
(§2) The minimum inhibitory concentrations resulting in 50% growth inhibition (MIC50) of […] Candida species (C. albicans, C. tropicalis and C. glabrata, C. lusitaniae, C. parapsilosis, and C. apicola) as well as Aspergillus fumigatus to a set of novel synthetic compounds was determined in accordance with the guidelines in CLSI document M27-A2 (Clinical and Laboratory Standards Institute; Wayne, Pa.). The total volume of cells and drug was 100 μL per microtiter well, and each drug was diluted in RPMI to achieve final concentrations of 0.2-100 μg/ml. Uninoculated cultures were used as a reference standard. Stock inoculum suspensions were prepared from 24 hour cultures on YPD (yeast extract/peptone/dextrose) media at 30° C. For MIC determinations, an inoculum of 1.0×10^3 cells of Candidia and 2.0×10^3 cells of Aspergillus per well were used, and cells in diluted drugs were prepared in RPMI-1640 medium. MICs were determined both visually and spectrophotometrically at 24 hours and 48 h at 550 nm using a micro plate reader. The MIC50 endpoint was measured as the lowest drug concentration resulting in a reduction of growth of 50% or more compared with growth of the control.
(§3) The minimum fungicidal concentrations (MFCs) were determined for each drug-isolate-medium combination as follows. After 48 hours of incubation, 100 μL of each drug-isolate-medium combination (2 plates) was subcultured onto YPD plates (100 μL of solution was spread over the YPD plate). […] The plates were then incubated at 30° C. for 48 hours.
(§4) The in vitro fungicidal activities (MFCs) were determined for each drug-isolate-medium combination as follows. After 48 hours of incubation, 10 μL each drug-isolate-medium combination was spotted onto YPD plates (10 μL of each well is spotted sequentially with positive and negative control wells). […] The plates were then incubated at 30° C. for 48 hours.

[5] = test system: Candida apicola; experiment: as above; format: cell-based; details: for Activity (fungicidal/fungistatic) / MIC-50 / Ratio MFC/MIC: Candida apicola; for MFC: Starmerella apicola
Experimental: as §1, §2, §3, §4

[6] = test system: Candida glabrata; experiment: as above; format: cell-based; details: for Activity (fungicidal/fungistatic) / Ratio MFC/MIC: Candida glabrata; for MFC / MIC: Nakaseomyces glabratus; for MIC: read-out: MIC-50
Experimental: as §1, §2, §3, §4

[7] = test system: Candida tropicalis; experiment: as above; format: cell-based; details: for MIC: read-out: MIC-50
Experimental: as §1, §2, §3, §4

[8] = test system: Candida lusitaniae; experiment: as above; format: cell-based; details: for Activity (fungicidal/fungistatic) / Ratio MFC/MIC: Candida lusitaniae; for MFC / MIC: Clavispora lusitaniae; for MIC: read-out: MIC-50
Experimental: as §1, §2, §3, §4

[9] = test system: Candida albicans (CAF-2); experiment: as above; format: cell-based; details: for MIC: read-out: MIC-50
Experimental: as §1, §2, §3, §4

[10] = test system: Aspergillus fumigatus; experiment: as above; format: cell-based
Experimental: as §1, §2, §3, §4

Structure (SMILES) | MFC [1] [µg/mL] | Activity (fungicidal/fungistatic) [1] | Ratio MFC/MIC [1] | MIC [1] [µg/mL] | Percentage Viability ([2]; 3.3 μg/mL (approx 1X MIC)) [%] | Percentage Viability ([2]; 10 μg/mL (approx 3X MIC)) [%] | Percentage Viability ([2]; 33 μg/mL (approx 10X MIC)) [%] | Percentage Viability ([2]; 100 μg/mL (approx 30X MIC)) [%] | Toxicity to mammalian cell lines (MTT assay) [3] | MFC [4] [µg/mL] | Activity (fungicidal/fungistatic) [4] | Ratio MFC/MIC [4] | MIC [4] [µg/mL] | Activity (fungicidal/fungistatic) [5] | MIC-50 [5] [µg/mL] | Ratio MFC/MIC [5] | MFC [5] [µg/mL] | Activity (fungicidal/fungistatic) [6] | Ratio MFC/MIC [6] | MFC [6] [µg/mL] | other results
COc1ccc(Cc2nnc(Cn3sc4ccccc4c3=O)o2)cc1 [Compound I-3] | 12.5 (≈ 35.4 µM) | fungicidal (An MFC/MIC ratio of less than four indicates that the compound is fungicidal) | 1 | 12.5 (≈ 35.4 µM) | >100 | >100 | >100 | >100 | minimally toxic | 12.5 | fungicidal (An MFC/MIC ratio of less than four indicates that the compound is fungicidal) | 2 | 6.4 | fungicidal (An MFC/MIC ratio of less than four indicates that the compound is fungicidal) | 6.4 | 2 | 12.5 | fungicidal (An MFC/MIC ratio of less than four indicates that the compound is fungicidal) | 2 | 50 | MIC [6]: 25 µg/mL; Activity (fungicidal/fungistatic) [7]: fungicidal (An MFC/MIC ratio of less than four indicates that the compound is fungicidal); MFC [7]: 12.5 µg/mL; Ratio MFC/MIC [7]: 2; MIC [7]: 6.4 µg/mL; Activity (fungicidal/fungistatic) [8]: fungicidal (An MFC/MIC ratio of less than four indicates that the compound is fungicidal); Ratio MFC/MIC [8]: 2; MFC [8]: 12.5 µg/mL; MIC [8]: 6.4 µg/mL; Activity (fungicidal/fungistatic) [9]: fungicidal (An MFC/MIC ratio of less than four indicates that the compound is fungicidal); MFC [9]: 12.5 µg/mL; Ratio MFC/MIC [9]: 1; MIC [9]: 12.5 µg/mL; Activity (fungicidal/fungistatic) [10]: fungicidal (An MFC/MIC ratio of less than four indicates that the compound is fungicidal); MFC [10]: 12.5 µg/mL; MIC50 [10]: 6.4 µg/mL; Ratio MFC/MIC [10]: 2
CC(=O)NNC(=O)Cn1sc2ccccc2c1=O [Compound I-7] | 12.5 (≈ 47.1 µM) | fungicidal (An MFC/MIC ratio of less than four indicates that the compound is fungicidal) | 1 | 12.5 (≈ 47.1 µM) | >100 | >100 | >100 | >100 | minimally toxic | 12.5 | fungicidal (An MFC/MIC ratio of less than four indicates that the compound is fungicidal) | 1 | 12.5 | fungicidal (An MFC/MIC ratio of less than four indicates that the compound is fungicidal) | 12.5 | 1 | 12.5 | fungicidal (An MFC/MIC ratio of less than four indicates that the compound is fungicidal) | 2 | 50 | MIC [6]: 25 µg/mL; Activity (fungicidal/fungistatic) [7]: fungicidal (An MFC/MIC ratio of less than four indicates that the compound is fungicidal); MFC [7]: 12.5 µg/mL; Ratio MFC/MIC [7]: 1; MIC [7]: 12.5 µg/mL; Activity (fungicidal/fungistatic) [8]: fungicidal (An MFC/MIC ratio of less than four indicates that the compound is fungicidal); Ratio MFC/MIC [8]: 1; MFC [8]: 12.5 µg/mL; MIC [8]: 12.5 µg/mL; Activity (fungicidal/fungistatic) [9]: fungicidal (An MFC/MIC ratio of less than four indicates that the compound is fungicidal); MFC [9]: 6.4 µg/mL; Ratio MFC/MIC [9]: 1; MIC [9]: 6.4 µg/mL
COc1ccc(CC(=O)NNC(=O)Cn2sc3ccccc3c2=O)cc1 [Compound I-6] | 12.5 (≈ 33.7 µM) | fungicidal (An MFC/MIC ratio of less than four indicates that the compound is fungicidal) | 1 | 12.5 (≈ 33.7 µM) | >100 | >100 | >100 | 67 | minimally toxic | 12.5 | fungicidal (An MFC/MIC ratio of less than four indicates that the compound is fungicidal) | 1 | 12.5 | fungicidal (An MFC/MIC ratio of less than four indicates that the compound is fungicidal) | 12.5 | 1 | 12.5 | fungicidal (An MFC/MIC ratio of less than four indicates that the compound is fungicidal) | 1 | 12.5 | MIC [6]: 12.5 µg/mL; Activity (fungicidal/fungistatic) [7]: fungicidal (An MFC/MIC ratio of less than four indicates that the compound is fungicidal); MFC [7]: 12.5 µg/mL; Ratio MFC/MIC [7]: 1; MIC [7]: 12.5 µg/mL; Activity (fungicidal/fungistatic) [8]: fungicidal (An MFC/MIC ratio of less than four indicates that the compound is fungicidal); Ratio MFC/MIC [8]: 1; MFC [8]: 12.5 µg/mL; MIC [8]: 12.5 µg/mL; Activity (fungicidal/fungistatic) [9]: fungicidal (An MFC/MIC ratio of less than four indicates that the compound is fungicidal); MFC [9]: 12.5 µg/mL; Ratio MFC/MIC [9]: 1; MIC [9]: 12.5 µg/mL
